{
  "source": "paper PMC4251536",
  "about": "(Journal of Natural Products, 2014)",
  "key": {"[1]": {"test_system": "voltage-gated sodium channels (VGSCs)", "format": "cell-based, mouse", "conditions": "veratridine-stimulated Na+ influx, murine cerebrocortical neurons"}, "[2]": {"test_system": "human lung adenocarcinoma cells", "conditions": "cited from earlier work"}, "[3]": {"test_system": "sodium ion channel in Neuro-2a cells", "conditions": "read-out: IC50, sodium ion channel blocking activity (veratridine-induced sodium influx), natural product; cited from earlier work"}},
  "data": [
    {"smiles": "C[C@H]1CCCC(=O)N(C)/C=C/CC[C@H](C)C(=O)O[C@H](C(C)(C)C)C1", "note": "[compound 3, (+)-palmyrolide A]", "values": [
      {"measurement": "fold more potent than the other analogues tested", "setting": "[1]", "value": "3–9 fold"}
    ]},
    {"smiles": "C[C@@H]1CCCC(=O)N(C)/C=C/CC[C@@H](C)C(=O)O[C@@H](C(C)(C)C)C1", "note": "[compound 1, (−)-palmyrolide A]", "values": [
      {"measurement": "cytotoxicity (in words)", "setting": "[2]", "value": "no appreciable cytotoxicity"},
      {"measurement": "fold more potent than the other analogues tested", "setting": "[1]", "value": "3–9 fold"},
      {"measurement": "IC50", "setting": "[3]", "value": 5.2, "unit": "µM"}
    ]},
    {"smiles": "C[C@@H]1CCCC(=O)N(C)CCCC[C@@H](C)C(=O)O[C@@H](C(C)(C)C)C1", "note": "[compound 5, 17,18-Dihydropalmyrolide A]", "values": [
      {"measurement": "fold more potent than the other analogues tested", "setting": "[1]", "value": "3–9 fold"}
    ]}
  ]
}
